The source made the active and inactive calls. For most assays here, no stated cut-off is given here; in the data, actives have a measured Kd and inactives only a lower limit.
What was measured:
[1] = target: T1, Glycogen phosphorylase, liver form (Homo sapiens, UniProt P06737); assay type: subcellular, K-562, COLO 205, SK-N-BE(2) and MV-4-11, Cell lysate; conditions: read-out: Kd apparent
T1 sequence (P06737 whole entry): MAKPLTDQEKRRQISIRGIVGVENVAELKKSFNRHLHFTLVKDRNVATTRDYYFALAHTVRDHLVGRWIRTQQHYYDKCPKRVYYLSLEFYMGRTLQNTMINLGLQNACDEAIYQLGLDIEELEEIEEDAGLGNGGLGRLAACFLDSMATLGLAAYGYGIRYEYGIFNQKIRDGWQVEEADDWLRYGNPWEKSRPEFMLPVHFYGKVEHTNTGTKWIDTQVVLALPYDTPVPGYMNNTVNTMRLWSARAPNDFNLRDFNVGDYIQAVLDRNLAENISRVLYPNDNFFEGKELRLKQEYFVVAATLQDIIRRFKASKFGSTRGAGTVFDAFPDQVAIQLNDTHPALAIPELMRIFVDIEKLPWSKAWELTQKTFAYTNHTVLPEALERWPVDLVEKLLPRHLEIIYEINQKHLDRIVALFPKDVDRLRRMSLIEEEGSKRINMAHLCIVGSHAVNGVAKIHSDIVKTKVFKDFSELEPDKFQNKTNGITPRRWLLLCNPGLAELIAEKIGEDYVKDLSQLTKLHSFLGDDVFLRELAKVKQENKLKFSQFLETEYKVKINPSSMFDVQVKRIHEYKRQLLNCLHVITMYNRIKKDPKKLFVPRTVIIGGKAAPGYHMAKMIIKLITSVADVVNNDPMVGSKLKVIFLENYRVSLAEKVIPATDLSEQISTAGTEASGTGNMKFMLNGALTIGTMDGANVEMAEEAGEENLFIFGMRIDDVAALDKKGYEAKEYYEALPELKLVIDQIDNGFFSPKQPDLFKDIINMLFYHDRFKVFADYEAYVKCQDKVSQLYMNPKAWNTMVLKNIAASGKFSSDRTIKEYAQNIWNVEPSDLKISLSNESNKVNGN

[2] = target: Casein kinase II subunit alpha' (Homo sapiens, UniProt P19784)
[3] = target: Serine/threonine-protein kinase/endoribonuclease IRE1 (Homo sapiens, UniProt O75460)
[4] = target: T2, Serine/threonine-protein kinase ICK (Homo sapiens, UniProt Q9UPZ9)
T2 sequence (Q9UPZ9 whole entry): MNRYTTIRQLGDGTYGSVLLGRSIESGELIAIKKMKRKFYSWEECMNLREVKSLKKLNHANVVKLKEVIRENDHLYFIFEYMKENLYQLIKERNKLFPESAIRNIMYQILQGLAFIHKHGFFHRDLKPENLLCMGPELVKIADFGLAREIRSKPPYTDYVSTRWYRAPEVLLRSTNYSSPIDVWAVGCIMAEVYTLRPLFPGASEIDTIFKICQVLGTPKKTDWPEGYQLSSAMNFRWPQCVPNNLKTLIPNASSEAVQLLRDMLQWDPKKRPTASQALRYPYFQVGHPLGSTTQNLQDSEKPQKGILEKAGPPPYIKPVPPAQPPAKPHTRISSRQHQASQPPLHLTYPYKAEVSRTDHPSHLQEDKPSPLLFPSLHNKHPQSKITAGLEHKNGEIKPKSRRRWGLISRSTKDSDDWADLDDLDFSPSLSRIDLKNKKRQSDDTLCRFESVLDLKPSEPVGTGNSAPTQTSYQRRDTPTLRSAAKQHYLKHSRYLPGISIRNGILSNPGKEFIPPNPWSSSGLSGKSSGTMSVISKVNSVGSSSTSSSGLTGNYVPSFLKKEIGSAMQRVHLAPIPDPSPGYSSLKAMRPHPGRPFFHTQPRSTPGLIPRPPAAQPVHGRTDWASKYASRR

Insulin receptor = Insulin receptor (Homo sapiens, UniProt P06213)
[5] = target: T3, Mitogen-activated protein kinase kinase kinase 3 (Homo sapiens, UniProt Q99759)
T3 sequence (Q99759 whole entry): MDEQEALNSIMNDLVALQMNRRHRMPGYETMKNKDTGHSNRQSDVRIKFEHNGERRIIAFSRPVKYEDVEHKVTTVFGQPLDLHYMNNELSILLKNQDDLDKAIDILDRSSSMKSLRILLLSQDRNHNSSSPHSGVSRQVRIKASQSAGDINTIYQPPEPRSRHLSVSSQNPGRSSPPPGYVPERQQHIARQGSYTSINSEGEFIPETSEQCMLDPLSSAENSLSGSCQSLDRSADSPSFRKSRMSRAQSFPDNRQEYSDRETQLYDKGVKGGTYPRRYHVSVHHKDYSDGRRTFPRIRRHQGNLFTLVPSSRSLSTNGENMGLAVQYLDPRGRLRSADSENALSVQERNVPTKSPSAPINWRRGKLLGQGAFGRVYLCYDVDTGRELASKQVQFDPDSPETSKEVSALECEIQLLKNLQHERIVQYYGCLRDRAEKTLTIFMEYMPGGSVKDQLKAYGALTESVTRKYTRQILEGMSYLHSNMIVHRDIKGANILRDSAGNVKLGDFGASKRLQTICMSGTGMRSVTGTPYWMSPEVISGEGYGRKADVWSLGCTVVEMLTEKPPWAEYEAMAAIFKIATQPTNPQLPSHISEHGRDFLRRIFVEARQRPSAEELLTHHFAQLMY

[6] = target: Serine/threonine-protein kinase PAK 4 (Homo sapiens, UniProt O96013)
[7] = target: Tyrosine-protein kinase Yes (Homo sapiens, UniProt P07947)
Tyrosine-protein kinase Yes, sequence (P07947 whole entry): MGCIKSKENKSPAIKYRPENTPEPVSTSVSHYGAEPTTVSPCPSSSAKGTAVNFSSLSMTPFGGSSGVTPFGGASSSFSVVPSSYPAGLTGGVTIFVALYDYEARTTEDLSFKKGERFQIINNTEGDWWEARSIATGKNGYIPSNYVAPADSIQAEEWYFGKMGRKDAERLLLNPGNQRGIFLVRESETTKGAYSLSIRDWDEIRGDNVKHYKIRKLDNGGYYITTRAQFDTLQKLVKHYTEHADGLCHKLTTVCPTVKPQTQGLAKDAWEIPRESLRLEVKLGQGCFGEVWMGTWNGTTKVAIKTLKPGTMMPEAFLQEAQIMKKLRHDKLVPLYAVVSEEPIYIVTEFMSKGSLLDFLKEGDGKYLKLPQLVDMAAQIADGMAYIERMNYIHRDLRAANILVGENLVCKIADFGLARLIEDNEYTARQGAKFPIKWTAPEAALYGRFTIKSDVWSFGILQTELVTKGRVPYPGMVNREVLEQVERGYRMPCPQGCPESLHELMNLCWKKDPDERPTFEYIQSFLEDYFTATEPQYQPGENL

Serine/threonine-protein kinase PAK 4, sequence (O96013 whole entry): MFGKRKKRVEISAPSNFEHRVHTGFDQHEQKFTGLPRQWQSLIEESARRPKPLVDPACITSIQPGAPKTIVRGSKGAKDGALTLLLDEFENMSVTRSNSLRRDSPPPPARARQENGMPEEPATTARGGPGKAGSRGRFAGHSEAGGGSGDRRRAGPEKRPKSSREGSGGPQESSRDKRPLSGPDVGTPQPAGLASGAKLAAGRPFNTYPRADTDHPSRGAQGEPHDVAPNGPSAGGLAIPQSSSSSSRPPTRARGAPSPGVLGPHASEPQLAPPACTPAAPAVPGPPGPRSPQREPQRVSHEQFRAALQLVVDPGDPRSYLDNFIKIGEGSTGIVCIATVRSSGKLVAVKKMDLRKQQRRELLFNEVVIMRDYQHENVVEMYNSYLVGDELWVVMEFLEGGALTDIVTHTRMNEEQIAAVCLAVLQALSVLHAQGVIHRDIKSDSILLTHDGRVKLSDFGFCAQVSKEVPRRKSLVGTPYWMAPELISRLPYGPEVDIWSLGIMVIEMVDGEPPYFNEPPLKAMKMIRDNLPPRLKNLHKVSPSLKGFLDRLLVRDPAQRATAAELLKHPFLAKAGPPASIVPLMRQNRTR
Serine/threonine-protein kinase/endoribonuclease IRE1, sequence (O75460 whole entry): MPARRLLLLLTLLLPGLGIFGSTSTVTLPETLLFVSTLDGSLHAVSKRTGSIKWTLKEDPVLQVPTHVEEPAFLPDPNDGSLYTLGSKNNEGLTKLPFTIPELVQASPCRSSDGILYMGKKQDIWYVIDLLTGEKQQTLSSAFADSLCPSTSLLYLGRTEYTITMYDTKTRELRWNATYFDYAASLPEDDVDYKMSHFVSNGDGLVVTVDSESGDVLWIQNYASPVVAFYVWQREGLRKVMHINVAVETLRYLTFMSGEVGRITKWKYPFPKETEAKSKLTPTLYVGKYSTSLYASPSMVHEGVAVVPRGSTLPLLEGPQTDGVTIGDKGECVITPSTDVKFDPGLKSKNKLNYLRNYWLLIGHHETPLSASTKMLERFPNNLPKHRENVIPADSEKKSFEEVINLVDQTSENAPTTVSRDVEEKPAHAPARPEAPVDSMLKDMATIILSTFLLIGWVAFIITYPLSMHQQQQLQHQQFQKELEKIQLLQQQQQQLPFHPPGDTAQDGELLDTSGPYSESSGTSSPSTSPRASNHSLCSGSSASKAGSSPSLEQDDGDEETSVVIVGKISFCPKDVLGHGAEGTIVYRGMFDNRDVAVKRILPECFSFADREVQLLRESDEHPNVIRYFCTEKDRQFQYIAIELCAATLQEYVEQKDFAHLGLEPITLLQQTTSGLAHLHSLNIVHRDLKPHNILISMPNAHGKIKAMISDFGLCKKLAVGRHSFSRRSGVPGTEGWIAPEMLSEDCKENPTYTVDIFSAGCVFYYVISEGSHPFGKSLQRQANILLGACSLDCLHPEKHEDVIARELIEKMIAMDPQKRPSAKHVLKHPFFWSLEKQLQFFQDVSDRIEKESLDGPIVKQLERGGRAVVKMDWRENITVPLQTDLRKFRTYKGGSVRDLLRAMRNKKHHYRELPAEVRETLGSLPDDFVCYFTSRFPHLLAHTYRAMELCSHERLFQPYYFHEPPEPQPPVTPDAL
Casein kinase II subunit alpha', sequence (P19784 whole entry): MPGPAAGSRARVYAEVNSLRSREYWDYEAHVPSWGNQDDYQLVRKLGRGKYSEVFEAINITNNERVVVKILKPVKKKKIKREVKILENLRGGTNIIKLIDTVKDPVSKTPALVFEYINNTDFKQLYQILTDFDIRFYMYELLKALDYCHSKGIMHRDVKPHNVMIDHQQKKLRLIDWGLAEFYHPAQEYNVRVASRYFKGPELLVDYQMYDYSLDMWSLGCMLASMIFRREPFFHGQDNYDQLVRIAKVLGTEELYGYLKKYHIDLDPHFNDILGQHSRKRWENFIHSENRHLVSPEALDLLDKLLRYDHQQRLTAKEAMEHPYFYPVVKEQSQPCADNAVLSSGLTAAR
Insulin receptor, sequence (P06213 28-758 limits assumed): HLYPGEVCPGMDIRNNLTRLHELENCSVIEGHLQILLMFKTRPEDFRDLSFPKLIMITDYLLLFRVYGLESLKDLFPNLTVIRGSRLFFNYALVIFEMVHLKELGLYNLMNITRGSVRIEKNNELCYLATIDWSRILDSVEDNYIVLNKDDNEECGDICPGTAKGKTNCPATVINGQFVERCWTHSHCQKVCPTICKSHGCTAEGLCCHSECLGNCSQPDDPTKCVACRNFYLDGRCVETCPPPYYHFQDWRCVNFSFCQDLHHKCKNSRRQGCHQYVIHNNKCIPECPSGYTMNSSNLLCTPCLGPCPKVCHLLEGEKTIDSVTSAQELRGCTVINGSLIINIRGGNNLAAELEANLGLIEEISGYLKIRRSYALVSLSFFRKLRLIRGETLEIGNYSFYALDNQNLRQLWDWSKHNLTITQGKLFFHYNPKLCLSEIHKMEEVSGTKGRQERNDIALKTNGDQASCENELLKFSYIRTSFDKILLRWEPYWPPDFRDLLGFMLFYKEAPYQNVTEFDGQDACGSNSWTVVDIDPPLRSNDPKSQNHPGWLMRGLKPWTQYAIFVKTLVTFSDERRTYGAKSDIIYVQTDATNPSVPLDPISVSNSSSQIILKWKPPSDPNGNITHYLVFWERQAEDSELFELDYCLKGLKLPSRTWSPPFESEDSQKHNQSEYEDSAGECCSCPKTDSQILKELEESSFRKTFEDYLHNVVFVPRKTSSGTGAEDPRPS
Insulin receptor, sequence (P06213 763-1382 limits assumed): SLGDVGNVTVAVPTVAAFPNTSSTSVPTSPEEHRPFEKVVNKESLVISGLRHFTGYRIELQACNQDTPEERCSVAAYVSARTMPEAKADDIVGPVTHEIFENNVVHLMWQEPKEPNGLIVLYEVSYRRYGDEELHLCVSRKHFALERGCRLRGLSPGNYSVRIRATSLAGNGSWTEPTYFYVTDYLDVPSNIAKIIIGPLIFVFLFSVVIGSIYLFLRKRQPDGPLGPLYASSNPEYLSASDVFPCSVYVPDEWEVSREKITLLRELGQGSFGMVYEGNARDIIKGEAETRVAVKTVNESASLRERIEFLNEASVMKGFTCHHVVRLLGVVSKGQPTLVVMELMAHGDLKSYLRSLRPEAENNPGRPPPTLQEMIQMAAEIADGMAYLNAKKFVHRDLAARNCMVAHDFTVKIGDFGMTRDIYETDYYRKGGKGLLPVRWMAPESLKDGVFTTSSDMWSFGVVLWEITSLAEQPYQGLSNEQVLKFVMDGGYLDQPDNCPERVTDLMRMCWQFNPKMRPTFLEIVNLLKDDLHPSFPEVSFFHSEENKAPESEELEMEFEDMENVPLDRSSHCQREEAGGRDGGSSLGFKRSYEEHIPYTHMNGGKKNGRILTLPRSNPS

CNC(=O)c1ccc(C)c(-n2c(C)cc(OCc3ccc(F)cc3F)c(Br)c2=O)c1 [PH-797804]
Kd [1]: > 30 µM (inactive)
Kd [2]: > 30 µM (inactive)
Kd [3]: > 30 µM (inactive)
Kd [4]: > 30 µM (inactive)
Kd (Insulin receptor): > 30 µM (inactive)
Kd [5]: > 30 µM (inactive)
Kd [6]: > 30 µM (inactive)
Kd [7]: > 30 µM (inactive)

COC(=O)[C@@]1(O)C[C@H]2O[C@]1(C)n1c3ccccc3c3c4c(c5c6ccccc6n2c5c31)C(=O)NC4 [K-252A]
Kd [1]: > 30 µM (inactive)
Kd [2]: > 30 µM (inactive)
Kd [3]: 0.019 µM (active)
Kd [4]: > 30 µM (inactive)
Kd (Insulin receptor): > 30 µM (inactive)
Kd [5]: > 30 µM (inactive)
Kd [6]: 0.344 µM (active)
Kd [7]: > 30 µM (inactive)

C[C@@H](c1ccc2nccn2c1)n1nnc2ncc(-c3cnn(C)c3)nc21 [SAVOLITINIB]
Kd [1]: > 30 µM (inactive)
Kd [2]: > 30 µM (inactive)
Kd [3]: > 30 µM (inactive)
Kd [4]: > 30 µM (inactive)
Kd (Insulin receptor): > 30 µM (inactive)
Kd [5]: > 30 µM (inactive)
Kd [6]: > 30 µM (inactive)
Kd [7]: > 30 µM (inactive)

CN1CCC(COc2cnc(-c3cccc(Cn4nc(-c5cccc(C#N)c5)ccc4=O)c3)nc2)CC1 [TEPOTINIB]
Kd [1]: > 30 µM (inactive)
Kd [2]: > 30 µM (inactive)
Kd [3]: > 30 µM (inactive)
Kd [4]: > 30 µM (inactive)
Kd (Insulin receptor): > 30 µM (inactive)
Kd [5]: > 30 µM (inactive)
Kd [6]: > 30 µM (inactive)
Kd [7]: > 30 µM (inactive)

COc1cc(N2CCC(N3CCN(C)CC3)CC2)ccc1Nc1ncnc(Nc2ccccc2S(=O)(=O)C(C)C)n1 [ASP-3026]
Kd [1]: > 30 µM (inactive)
Kd [2]: > 30 µM (inactive)
Kd [3]: 12.2 µM (active)
Kd [4]: > 30 µM (inactive)
Kd (Insulin receptor): 7.91 µM (active)
Kd [5]: > 30 µM (inactive)
Kd [6]: > 30 µM (inactive)
Kd [7]: 0.781 µM (active)

CNC(=O)c1ccc(-c2cnc3ncc(Cc4ccc5ncccc5c4)n3n2)cc1F [CAPMATINIB]
Kd [1]: > 30 µM (inactive)
Kd [2]: > 30 µM (inactive)
Kd [3]: > 30 µM (inactive)
Kd [4]: > 30 µM (inactive)
Kd (Insulin receptor): > 30 µM (inactive)
Kd [5]: > 30 µM (inactive)
Kd [6]: > 30 µM (inactive)
Kd [7]: > 30 µM (inactive)

CCn1c(=O)c(-c2cc[nH]n2)cc2c(C)nc(N)nc21 [VOXTALISIB]
Kd [1]: > 30 µM (inactive)
Kd [2]: > 30 µM (inactive)
Kd [3]: > 30 µM (inactive)
Kd [4]: > 30 µM (inactive)
Kd (Insulin receptor): > 30 µM (inactive)
Kd [5]: > 30 µM (inactive)
Kd [6]: > 30 µM (inactive)
Kd [7]: > 30 µM (inactive)

Cc1cc2c(F)c(Oc3ncnn4cc(OC[C@@H](C)OC(=O)[C@H](C)N)c(C)c34)ccc2[nH]1 [BRIVANIB ALANINATE]
Kd [1]: > 30 µM (inactive)
Kd [2]: > 30 µM (inactive)
Kd [3]: > 30 µM (inactive)
Kd [4]: > 30 µM (inactive)
Kd (Insulin receptor): > 30 µM (inactive)
Kd [5]: > 30 µM (inactive)
Kd [6]: > 30 µM (inactive)
Kd [7]: > 30 µM (inactive)

COc1cc(OC)c(/C=C/S(=O)(=O)Cc2ccc(OC)c(NCC(=O)O)c2)c(OC)c1 [RIGOSERTIB]
Kd [1]: > 30 µM (inactive)
Kd [2]: > 30 µM (inactive)
Kd [3]: > 30 µM (inactive)
Kd [4]: > 30 µM (inactive)
Kd (Insulin receptor): > 30 µM (inactive)
Kd [5]: > 30 µM (inactive)
Kd [6]: > 30 µM (inactive)
Kd [7]: > 30 µM (inactive)

Cc1ccc(-n2nc(C(C)(C)C)cc2NC(=O)NCc2cc(F)ccc2Oc2ccc3c(cnn3CCO)c2)cc1 [PEXMETINIB]
Kd [1]: > 30 µM (inactive)
Kd [2]: > 30 µM (inactive)
Kd [3]: > 30 µM (inactive)
Kd [4]: > 30 µM (inactive)
Kd (Insulin receptor): > 30 µM (inactive)
Kd [5]: > 30 µM (inactive)
Kd [6]: > 30 µM (inactive)
Kd [7]: > 30 µM (inactive)

Cn1cc(-c2ccc(F)c(C(F)(F)F)c2)nc1C1CCN(c2ncnc3[nH]ncc23)CC1 [LY-2584702]
Kd [1]: > 30 µM (inactive)
Kd [2]: > 30 µM (inactive)
Kd [3]: > 30 µM (inactive)
Kd [4]: > 30 µM (inactive)
Kd (Insulin receptor): > 30 µM (inactive)
Kd [5]: > 30 µM (inactive)
Kd [6]: > 30 µM (inactive)
Kd [7]: > 30 µM (inactive)

CC[C@H](Nc1ncnc2[nH]cnc12)c1nc2cccc(F)c2c(=O)n1-c1ccccc1 [IDELALISIB]
Kd [1]: > 30 µM (inactive)
Kd [2]: > 30 µM (inactive)
Kd [3]: > 30 µM (inactive)
Kd [4]: > 30 µM (inactive)
Kd (Insulin receptor): > 30 µM (inactive)
Kd [5]: > 30 µM (inactive)
Kd [6]: > 30 µM (inactive)
Kd [7]: > 30 µM (inactive)

O=C1NC(=O)/C(=C/c2ccc3nccc(-c4ccncc4)c3c2)S1 [GSK-1059615]
Kd [1]: > 30 µM (inactive)
Kd [2]: 0.017 µM (active)
Kd [3]: > 30 µM (inactive)
Kd [4]: > 30 µM (inactive)
Kd (Insulin receptor): > 30 µM (inactive)
Kd [5]: > 30 µM (inactive)
Kd [6]: > 30 µM (inactive)
Kd [7]: > 30 µM (inactive)

CNC(=O)c1cc(Oc2ccc(NC(=O)Nc3ccc(Cl)c(C(F)(F)F)c3)c(F)c2)ccn1 [REGORAFENIB]
Kd [1]: > 30 µM (inactive)
Kd [2]: > 30 µM (inactive)
Kd [3]: > 30 µM (inactive)
Kd [4]: > 30 µM (inactive)
Kd (Insulin receptor): > 30 µM (inactive)
Kd [5]: > 30 µM (inactive)
Kd [6]: > 30 µM (inactive)
Kd [7]: > 30 µM (inactive)

CN1N=C(N)c2cn([C@@H]3O[C@H](COP(=O)(O)O)[C@@H](O)[C@H]3O)c3ncnc1c23 [TRICIRIBINE PHOSPHATE]
Kd [1]: > 30 µM (inactive)
Kd [2]: > 30 µM (inactive)
Kd [3]: > 30 µM (inactive)
Kd [4]: > 30 µM (inactive)
Kd (Insulin receptor): > 30 µM (inactive)
Kd [5]: > 30 µM (inactive)
Kd [6]: > 30 µM (inactive)
Kd [7]: > 30 µM (inactive)

CN1CCC(CNc2ccc3ncc(-c4cccc(OC(F)(F)F)c4)n3n2)CC1 [SGI-1776]
Kd [1]: > 30 µM (inactive)
Kd [2]: 7.92 µM (active)
Kd [3]: > 30 µM (inactive)
Kd [4]: > 30 µM (inactive)
Kd (Insulin receptor): > 30 µM (inactive)
Kd [5]: > 30 µM (inactive)
Kd [6]: > 30 µM (inactive)
Kd [7]: > 30 µM (inactive)

CC(C)Nc1cc(-c2c[nH]c(C(=O)N[C@H](CO)c3cccc(Cl)c3)c2)c(Cl)cn1 [ULIXERTINIB]
Kd [1]: > 30 µM (inactive)
Kd [2]: > 30 µM (inactive)
Kd [3]: > 30 µM (inactive)
Kd [4]: > 30 µM (inactive)
Kd (Insulin receptor): > 30 µM (inactive)
Kd [5]: > 30 µM (inactive)
Kd [6]: > 30 µM (inactive)
Kd [7]: > 30 µM (inactive)

CC[C@@H]1C(=O)N(C)c2cnc(Nc3ccc(C(=O)N[C@H]4CC[C@H](N5CCN(CC6CC6)CC5)CC4)cc3OC)nc2N1C(C)C [VOLASERTIB]
Kd [1]: > 30 µM (inactive)
Kd [2]: > 30 µM (inactive)
Kd [3]: > 30 µM (inactive)
Kd [4]: > 30 µM (inactive)
Kd (Insulin receptor): > 30 µM (inactive)
Kd [5]: > 30 µM (inactive)
Kd [6]: > 30 µM (inactive)
Kd [7]: > 30 µM (inactive)

Source: ChEMBL document CHEMBL3991601, “The target landscape of clinical kinase drugs” (Science, 2017)
